Assay results taken from US20030199002A1, “Clk-2 nucleic acids, polypeptides and uses thereof” (priority 2000, published 2003).

How the values were obtained:
[1] = Cell death assay (trypan blue exclusion) in SK-HEP-1 cells overexpressing hclk-2; type: cell-based, human; conditions: human; SK-HEP-1 cells overexpressing hclk-2; concentration and time per Table 7: menadione 12 μM 24 hr, t-butyl hydroperoxide 40 μM 48 hr, hydroxyurea 0.6 mM 96 hr; means of triplicate; read-out: Cell viability (percentage of cells excluding trypan blue)
Procedure: (§1) FIG. 11 illustrates the affect of hclk-2 overexpression on sensitivity to menadione, t-butyl hydroperoxide and hydroxyurea of SK-HEP-1 cells. SK-HEP-1 cells overexpressing hclk-2 and control cells were seeded at 1×10^5/well in a 6-well dish and were treated with γ-rays or apoptosis-inducing compounds for various lengths of time (see Table 7). Cells were then trypsinized, diluted and stained with 0.2% trypan blue. Cell viability was expressed as the percentage of cells excluding trypan blue. The data shown are the means of triplicate experiments. When cells were treated with menadione, t-butyl hydroperoxide or hydroxyurea, the viability of SK-HEP-1 cells overexpressing hclk-2 (44%, 30%, 40% respectively) was dramatically lower than that of the control cells (70%, 63%, 76%), respectively.
(§2) To determine the occurrence of cell death, cells were seeded at 1×10^5 in 6-well dishes. The next day the cells were treated by γ-ray (20 Gy) and counted 72 hr later. A series of different apoptosis-inducing agents were also investigated and the cells were analyzed at various times following treatment (see Table 7). Cell viability was measured by the trypan blue exclusion method.

[2] = test system: SK-HEP-1 cells overexpressing hclk-2; test: as above; type: cell-based, human; conditions: SK-HEP-1 cells overexpressing hclk-2 vs control cells
Procedure: as §1, §2

[3] = Cell death assay (trypan blue exclusion) in SK-HEP-1 control cells; type: cell-based; conditions: human; SK-HEP-1 control cells (empty vector); concentration and time per Table 7: menadione 12 μM 24 hr, t-butyl hydroperoxide 40 μM 48 hr, hydroxyurea 0.6 mM 96 hr; means of triplicate; read-out: Cell viability (percentage of cells excluding trypan blue)
Procedure: as §1, §2

| Compound | viability [1] [%] | Sensitivity of cells overexpressing hclk-2 to the apoptosis-inducing agent, compared to control cells [2] | viability [3] [%] |
| --- | --- | --- | --- |
| CC(C)(C)OO [t-butyl hydroperoxide, t-Butyl hydroperoxide] | 30 | specifically hypersensitive | 63 |
| NC(=O)NO [hydroxyurea, Hydroxyurea] | – | also hypersensitive | – |
| CC1=CC(=O)c2ccccc2C1=O [menadione, Menadione] | – | specifically hypersensitive | – |
| COc1cc([C@@H]2c3cc4c(cc3[C@@H](O[C@@H]3O[C@@H]5CO[C@@H](C)O[C@H]5[C@H](O)[C@H]3O)[C@H]3COC(=O)[C@H]23)OCO4)cc(OC)c1O [etoposide, Etoposide] | – | no evidence to suggest that an increased sensitivity | – |
